What was measured:
Format in all cases: cell-based, human
GAPDH [1] = test: GAPDH inhibition in PANC-1 cells, same assay; conditions: 2 point DR data
Experimental: (§1) The PANC-1 cells were grown in cell culture media and seeded onto a 96 well plate at a density of 20,000 cells/well. ASOs were tested in two separate cohorts: 2 doses or 5 doses were given to the PANC-1 cells (See TABLE 3) at final concentrations of 20 nM and 2 nM, respectively. The assay used Lipofectamine2000 transfection and a 48 hr treatment cycle, with incubation at 37° C. and 5% C02. Analysis of the mRNA expression was then carried out using a branched DNA assay.

STAT3 mRNA [2] = test: STAT3 mRNA expression in IL-6 stimulated PANC-1 cells, branched DNA assay; conditions: for STAT3 Inhibition 2 nM / STAT3 Inhibition 20 nM: 2 point DR data; for IC50: 5 point DR data, Lipofectamine2000 transfection, 48 hr, read-out: STAT3 PANC1 IC50 Prism
Experimental: as §1, with “The ASOs of the present disclosure were tested for their ability to reduce STAT3 mRNA expression in IL-6 stimulated PANC-1 cells. The PANC-1” for “The PANC-1”

STAT3 mRNA [3] = test: as above; conditions: 5 point DR data
GAPDH [4] = test: GAPDH inhibition in HEK-293 cells, same assay; parameters: GAPDH max inhibition: unit not given here; conditions: for 2D GAPDH 20 nM inhibition: 2D (dual-dose); for GAPDH max inhibition: Table 6
NRas mRNA = NRas mRNA expression in HEK-293 cells, branched DNA assay; parameters: NRAS max inhibition: unit not given here; conditions: for IC20 / IC50 / IC80 / max. inhib. [%]:: HEK293 cells: dose-response; for NRAS max inhibition: Table 6
Experimental: as §1, with “The ASOs of the present disclosure were tested for their ability to reduce NRas mRNA expression in HEK-293 cells. The HEK-293” for “The PANC-1”, “the HEK-293” for “the PANC-1”, “(See TABLES 4, 5 and 6)” for “(See TABLE 3)”, “2 nM” for “2 nM,”

Substance	GAPDH Inhibition 20 nM (GAPDH [1])	STAT3 Inhibition 2 nM (STAT3 mRNA [2])	STAT3 Inhibition 20 nM (STAT3 mRNA [2])	IC50 (STAT3 mRNA [2])	STAT3 Max inihibition 24 nM (STAT3 mRNA [3])	2D GAPDH 20 nM inhibition (GAPDH [4])	GAPDH max inhibition (GAPDH [4])	IC20 (NRas mRNA)	IC50 (NRas mRNA)	IC80 (NRas mRNA)	max. inhib. [%]: (NRas mRNA)	NRAS max inhibition (NRas mRNA)
102 (TTGGCTCGATCCAGGAGTGT; chemistry not given here) [compound 102]	16.00	82.7	89.5	0.473 nM	78.02							
103 (CTCCTGTTGGCTCGATCCAG; chemistry not given here) [compound 103]	10.00	82.5	95.8	0.465 nM	89.93							
105 (GGATAGTCCTCTAAGTGCAT; chemistry not given here) [compound 105]	13.00	79.4	91.6	1.47 nM	85.61							
107 (TAGCGTGGCTAGATCCACAT; chemistry not given here) [compound 107]	8.00	79.0	87.7	0.037 nM	70.92							
112 (GCGAAGATCCACACGGCCAT; chemistry not given here) [compound 112]	−25.00	70.0	91.0	1.04 nM	86.32							
114 (GTTGATCGCAGCGAAGATCC; chemistry not given here) [compound 114]	10.00	66.4	87.0	0.814 nM	84.94							
115 (CTGTTGATCGCAGCGAAGAT; chemistry not given here) [compound 115]	3.00	65.2	90.8	0.796 nM	78.99							
116 (CTCCTGTTGATCGCAGCGAA; chemistry not given here) [compound 116]	16.00	64.5	85.5	1.85 nM	69.78							
120 (ATTATCTGAACCCCACTTCG; chemistry not given here) [compound 120]	12.00	62.8	93.4	2.05 nM	87.43							
124 (ATAGAGATTCTCGAAAGGTA; chemistry not given here) [compound 124]	13.00	62.6	83.3	1.6 nM	86.46							
125 (CACGTACTTTCTGTACTTCT; chemistry not given here) [compound 125]	14.00	61.7	85.1	2.3 nM	81.67							
126 (TGGAATCTGCTTCTCACGTA; chemistry not given here) [compound 126]	13.00	61.4	90.7	2.78 nM	87.71							
128 (ACCCAGACGGGCATTCCTGT; chemistry not given here) [compound 128]	19.00	61.1	81.1	3.56 nM	79.56							
130 (TGTAGCGTTTGTTGAGGCTC; chemistry not given here) [compound 130]	13.00	59.3	80.7	1.68 nM	72.16							
131 (AGTCGTGTGTAGCGTTTGTT; chemistry not given here) [compound 131]	12.00	58.9	90.7	2.83 nM	75.20							
133 (GCAGTCGTGTGTAGCGTTTG; chemistry not given here) [compound 133]	14.00	55.9	90.7	2.24 nM	81.73							
134 (CGCAGTCGTGTGTAGCGTTT; chemistry not given here) [compound 134]	10.00	54.3	82.8	2.13 nM	77.94							
135 (ACGTCTTGGTCTTGCCGATG; chemistry not given here) [compound 135]	4.00	53.9	84.2	1.05 nM	78.59							
137 (ATCTTAATGGGACTCACGGG; chemistry not given here) [compound 137]	−2.00	53.0	87.4	1.8 nM	79.46							
138 (CCATCTTAATGGGACTCACG; chemistry not given here) [compound 138]	9.00	53.0	86.8	1.31 nM	85.33							
139 (ACTCCATCTTAATGGGACTC; chemistry not given here) [compound 139]	10.00	52.8	83.4	4.02 nM	72.50							
250 (GCCAAACAGCGTAACCCCTT; chemistry not given here) [compound 250]						27.30	33.44	0.173 nM	0.715 nM	5.68 nM	86.3%	88.02
252 (CCAAACAGCGTAACC; chemistry not given here) [compound 252]						13.40	29.98	0.072 nM	0.296 nM	1.95 nM	88.4%	91.49
253 (CGGCCAAACAGCGTAAC; chemistry not given here) [compound 253]						40.44	29.34	0.108 nM	0.461 nM	2.79 nM	90.4%	94.40
254 (GCCAAACAGCGTAAC; chemistry not given here) [compound 254]						20.10	32.96	0.067 nM	0.336 nM	2.11 nM	93.4%	96.11
257 (TCTGCCCGGCCAAACAGCGT; chemistry not given here) [compound 257]						21.09	30.55	0.069 nM	0.364 nM	3.67 nM	87.3%	91.79
264 (GCGGAGTTTCTGCCCGGCCA; chemistry not given here) [compound 264]						10.43	26.13	0.039 nM	0.229 nM	2.43 nM	88.5%	91.73
SEQ ID NO: 232: NRas ASO, starting nucleotide 400, length 20 (CCGGGCAGAAACTCCGCTGA; chemistry not given here)						36.10	53.16	0.048 nM	0.245 nM	1.59 nM	93.2%	95.91
SEQ ID NO: 236: NRas ASO, starting nucleotide 421, length 20 (CCCCGAGATGTTCCCTGGTG; chemistry not given here)						34.05	40.06	0.053 nM	0.349 nM	4.78 nM	87.3%	91.51

Source: patent US20220354963A1, “EXTRACELLULAR VESICLE LINKED TO MOLECULES AND USES THEREOF” (Codiak BioSciences, Inc., priority 2019, published 2022)
